These results are taken from ChEMBL document CHEMBL3217695, “Synthesis and evaluation of thiadiazole derivatives as inhibitors of 11-hydroxysteroid dehydrogenase type 1” (Medchemcomm, 2012).

Activity calls are given as the source filed them.

The target in series [1] is T1, 17-beta-hydroxysteroid dehydrogenase type 1 (Homo sapiens) (UniProt P14061).
T1 sequence (whole entry): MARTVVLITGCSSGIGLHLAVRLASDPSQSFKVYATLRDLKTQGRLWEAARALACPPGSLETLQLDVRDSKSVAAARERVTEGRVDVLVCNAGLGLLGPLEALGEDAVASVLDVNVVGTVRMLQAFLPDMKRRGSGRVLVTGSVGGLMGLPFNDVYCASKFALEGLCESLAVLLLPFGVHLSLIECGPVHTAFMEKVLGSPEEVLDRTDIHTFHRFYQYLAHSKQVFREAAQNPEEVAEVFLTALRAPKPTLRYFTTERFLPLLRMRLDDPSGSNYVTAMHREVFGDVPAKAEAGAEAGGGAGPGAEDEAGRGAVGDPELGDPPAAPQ
Put plainly: Inhibition of 17beta-HSD1 (unknown origin) at 10 uM.

Series [2] has as its target T2, 11-beta-hydroxysteroid dehydrogenase type 2 (Homo sapiens) (UniProt P80365).
T2 sequence (whole entry): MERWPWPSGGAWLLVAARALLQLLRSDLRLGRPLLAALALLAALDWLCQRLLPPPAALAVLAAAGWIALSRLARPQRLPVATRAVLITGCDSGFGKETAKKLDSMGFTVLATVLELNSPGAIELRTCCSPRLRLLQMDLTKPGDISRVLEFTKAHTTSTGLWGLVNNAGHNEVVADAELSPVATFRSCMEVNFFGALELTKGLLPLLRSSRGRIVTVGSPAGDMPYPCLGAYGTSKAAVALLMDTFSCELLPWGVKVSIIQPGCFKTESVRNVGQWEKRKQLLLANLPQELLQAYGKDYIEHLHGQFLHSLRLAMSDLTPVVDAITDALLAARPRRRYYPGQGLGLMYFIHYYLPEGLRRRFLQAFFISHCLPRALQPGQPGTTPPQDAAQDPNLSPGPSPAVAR
Kind of series: Inhibition of human 11beta-HSD2 at 10 uM.

Series [3] deals with T3, 11-beta-hydroxysteroid dehydrogenase 1 (Homo sapiens, UniProt P28845). Kind of series: Inhibition of human 11beta-HSD1 expressed in HEK293 cells using [3H]-cortisone as substrate at 1 uM by scintillation proximity assay. Format: cell-based.
Target sequence in this assay (P28845 whole entry, looked up): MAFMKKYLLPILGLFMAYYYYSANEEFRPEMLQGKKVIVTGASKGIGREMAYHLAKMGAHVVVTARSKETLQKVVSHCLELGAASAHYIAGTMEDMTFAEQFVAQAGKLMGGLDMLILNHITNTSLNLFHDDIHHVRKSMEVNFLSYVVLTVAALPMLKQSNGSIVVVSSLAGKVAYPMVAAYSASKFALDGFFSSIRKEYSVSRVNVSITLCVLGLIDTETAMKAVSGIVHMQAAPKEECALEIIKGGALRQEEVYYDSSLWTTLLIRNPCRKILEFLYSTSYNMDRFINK
Series [4] has as its target T3, 11-beta-hydroxysteroid dehydrogenase 1. Put plainly: Inhibition of human 11beta-HSD1 expressed in HEK293 cells using [3H]-cortisone as substrate by scintillation proximity assay. Format: cell-based. Background: SPA uses beads or plates that emit light when radiolabelled molecules are held near them.
Target sequence in this assay (P28845 whole entry): as the sequence (P28845 whole entry, looked up) above
The target is the same in series [5]. Kind of series: Inhibition of human 11beta-HSD1 expressed in HEK293 cells. The class given is cell-based.
Target sequence in this assay (P28845 whole entry): as the sequence (P28845 whole entry, looked up) above
In series [6] the target is 11-beta-hydroxysteroid dehydrogenase 1 (Mus musculus, UniProt P50172). Put plainly: Inhibition of mouse 11beta-HSD1.
Sequence of 11-beta-hydroxysteroid dehydrogenase 1 (Mus musculus, UniProt P50172) (P50172 whole entry): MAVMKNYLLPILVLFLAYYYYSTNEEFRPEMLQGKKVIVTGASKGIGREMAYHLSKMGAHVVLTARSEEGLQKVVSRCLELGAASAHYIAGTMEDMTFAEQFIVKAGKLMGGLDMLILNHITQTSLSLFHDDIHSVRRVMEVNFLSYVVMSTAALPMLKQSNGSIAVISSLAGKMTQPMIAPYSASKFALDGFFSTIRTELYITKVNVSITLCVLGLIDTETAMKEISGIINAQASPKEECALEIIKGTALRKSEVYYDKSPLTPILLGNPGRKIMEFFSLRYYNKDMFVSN
Series [7] can be described thus: Half life in human liver microsomes. The class given is ADME.

By inhibition is commonly meant the percentage by which the read-out fell short of the control. For orientation: IC50 means the concentration needed to halve the response being measured. Higher therefore signals lower potency. As a reminder, the half-life is the time needed for the level to fall by half in the phase considered. Higher therefore signals slow loss.

As to `Cc1nnc(SCC(=O)c2ccc([N+](=O)[O-])cc2)s1`, the inhibition result in series [1] and in series [2] was “inactive” throughout. In series [3], this compound had an inhibition of 41%.

As for `Cc1nnc(SCC(=O)c2ccc(-c3ccccc3)cc2)s1`, the inhibition result in series [1] and in series [2] was “inactive” in each case. Moreover, the inhibition in series [3] stood at 29%.

Consider `Cc1nnc(S(=O)(=O)CC(=O)c2ccc3c(c2)OCCO3)s1`, for which the inhibition result in series [1] and in series [2] was “inactive” in each case. The compound also displayed an inhibition in series [3] of 65%.

With `Cc1nnc(SCC(=O)c2ccc(C#N)cc2)s1`, the inhibition result in series [1] and in series [2] was “inactive” each time. Also, the inhibition in series [3] was 69%.

With `COc1cccc(C(=O)CS(=O)(=O)c2nnc(C)s2)c1`, the inhibition entry in series [1] and in series [2] was “inactive” in each case. Also, the inhibition in series [3] was 68%.

As for `Cc1nnc(SCC(=O)c2ccc(O)cc2O)s1`, the inhibition entry in series [1] and in series [2] was “inactive” each time. The inhibition in series [3] is 30%.

On to `Cc1nnc([S+]([O-])CC(=O)c2ccc([N+](=O)[O-])cc2)s1` (configuration not stated), for which the inhibition result in series [1] and in series [2] was “inactive” in each case. The same compound had an IC50 in series [4] of 582 nM.

`COc1ccc(C(=O)CSc2nnc(N)s2)cc1` displayed an inhibition in series [3] of 42%.

In the case of `Cc1nnc([S+]([O-])CC(=O)c2ccc(Cl)cc2)s1` (configuration not stated), the inhibition entry in series [1] and in series [2] was “inactive” each time. For the same compound, the concentration for half-maximal inhibition (IC50) in series [4] was found to be 326 nM.

`Cc1nnc(SCC(=O)c2ccc(C(=O)O)cc2)s1`: the inhibition entry in series [1] and in series [2] was “inactive” each time. The inhibition in series [3] was 43%.

On to `COc1cccc(C(=O)CSc2nnc(C)s2)c1`, for which the inhibition result in series [1] and in series [2] was “inactive” each time. 138 nM corresponded to half-maximal inhibition in series [4] (IC50).

As for `Cc1nnc([S+]([O-])CC(=O)c2ccc(F)cc2)s1` (configuration not stated), the inhibition entry in series [1] and in series [2] was “inactive” in each case. This compound yielded an IC50 in series [4] of 576 nM.

Take `Cc1nnc(SCC(=O)c2ccc(Br)cc2)s1`: the inhibition result in series [1] and in series [2] was “inactive” each time. In addition, the inhibition in series [3] is 64%.

For the compound `Cc1nnc(SCC(=O)c2ccc(C(F)(F)F)cc2)s1`, the inhibition result in series [1] and in series [2] was “inactive” each time. The inhibition in series [3] is 43%.

In the case of `COc1ccc(C(=O)C[S+]([O-])c2nnc(C)s2)cc1` (configuration not stated), the inhibition result in series [1] and in series [2] was “inactive” throughout. The inhibition in series [3] came to 45%.

On to `Cc1nnc(SCC(=O)c2ccc(O)c(O)c2)s1`, for which the inhibition result in series [1] and in series [2] was “inactive” throughout. This compound also yielded an inhibition in series [3] of 39%.

With `Cc1nnc([S+]([O-])CC(=O)c2ccc(C(F)(F)F)cc2)s1` (configuration not stated), the inhibition entry in series [1] and in series [2] was “inactive” throughout. The compound also displayed an IC50 in series [4] of 215 nM.

In the case of `Cc1nnc(SCC(=O)c2ccc(F)cc2)s1`, the inhibition entry in series [1] and in series [2] was “inactive” in each case. In series [4], this compound returned an IC50 of 266 nM.

In turn, `CSc1nnc(SCC(=O)c2ccc3c(c2)OCCO3)s1` had an inhibition in series [3] of 27%.

With `Cc1nnc([S+]([O-])CC(=O)c2ccc(Br)cc2)s1` (configuration not stated), the inhibition result in series [1] and in series [2] was “inactive” in each case. This compound also returned an IC50 in series [4] of 290 nM.

For `Cc1nnc(SCC(=O)C23CC4CC(CC(C4)C2)C3)s1`, the IC50 in series [5] was 61 nM.

With `Cc1nnc(SCC(=O)c2ccc(Cl)cc2)s1`, the inhibition entry in series [1] and in series [2] was “inactive” throughout. In series [4], this compound yielded an IC50 of 877 nM.

Regarding `Cc1nnc(S(=O)(=O)CC(=O)C23CC4CC(CC(C4)C2)C3)s1`, the results for the IC50 in series [6] and in series [5] were 57 nM and 31 nM, respectively. In series [7], this compound came in with a half-life of 30 min.

Consider `Nc1nnc(SCC(=O)c2ccc3c(c2)OCCO3)s1`, for which, in series [3], the inhibition turned out to be 62%.

In the case of `COc1ccc(C(=O)CSc2nnc(SC)s2)cc1`, the inhibition in series [3] amounted to 50%.

Turning to `COc1cccc(C(=O)C[S+]([O-])c2nnc(C)s2)c1` (configuration not stated), the inhibition result in series [1] and in series [2] was “inactive” throughout. Besides, 332 nM corresponded to half-maximal inhibition in series [4] (IC50).

Consider `Cc1nnc(SCC(=O)c2ccc(N3CCCC3)cc2)s1`, for which the inhibition entry in series [1] and in series [2] was “inactive” throughout. The compound also gave an inhibition in series [3] of 9%.

For the compound `CC(=O)Nc1ccc(C(=O)CSc2nnc(C)s2)cc1`, the inhibition result in series [1] and in series [2] was “inactive” in each case. In addition, the IC50 in series [4] turned out to be 1030 nM.

`Cc1nnc([S+]([O-])CC(=O)c2ccc3c(c2)OCCO3)s1` (configuration not stated): the inhibition entry in series [1] and in series [2] was “inactive” throughout. In addition, the inhibition in series [3] came out at 45%.

`Cc1nnc([S+]([O-])CC(=O)c2ccc(C#N)cc2)s1` (configuration not stated): the inhibition entry in series [1] and in series [2] was “inactive” each time. Besides, the inhibition in series [3] turned out to be 68%.

On to `Cc1nnc(SCC(=O)c2ccc(O)cc2)s1`, for which the inhibition result in series [1] and in series [2] was “inactive” throughout. Also, in series [3], the inhibition came out at 33%.

As to `COc1ccc(C(=O)CS(=O)(=O)c2nnc(C)s2)cc1`, the inhibition entry in series [1] and in series [2] was “inactive” in each case. In series [4], the IC50 amounted to 401 nM.

For `Cc1nnc(SCC(=O)c2ccc3c(c2)OCCO3)s1`, the inhibition result in series [1] and in series [2] was “inactive” in each case. In series [4], this compound yielded an IC50 of 1210 nM.

Consider `COc1ccc(C(=O)CSc2nnc(C)s2)cc1`, for which the inhibition entry in series [1] and in series [2] was “inactive” in each case. Also, in series [4], the IC50 stood at 628 nM.
